In PubChem BioAssay AID1745844 (Carcinogenic Potency Database (CPDB), 2022):
“And” between values parts separate entries of the source, which are not always exact repeats. Equal entries are not always repeated. The source made the active and inactive calls. How the calls were made is not given here.

System: rodent lifetime carcinogenesis bioassay, tumor incidence TD50
Assay: chronic cancer bioassays in animals – CPDB, compiled studies (AID 1745844)
Settings: inhaled, dosed 104 weeks, study length 104 weeks; for carcinogen call: site: liver, lesion: one or several types, types not named

For C=CC(=C)Cl, the TD50 (mouse, strain B6C3F1, males, site: lung, lesion: alveolar/bronchiolar adenoma + alveolar/bronchiolar carcinoma) was 17.2 mg/kg/day, the TD50 (mouse, strain B6C3F1, males, site: lung, lesion: alveolar/bronchiolar adenoma) was 30.7 mg/kg/day and the TD50 (mouse, strain B6C3F1, males, site: lung, lesion: alveolar/bronchiolar carcinoma) was 26.4 mg/kg/day. The TD50 (mouse, strain B6C3F1, males, site: mesentery, lesion: hemangioma + hemangiosarcoma) was 37.6 mg/kg/day, the TD50 (mouse, strain B6C3F1, males, site: mesentery, lesion: hemangiosarcoma) was 39 mg/kg/day and the TD50 (mouse, strain B6C3F1, males, site: subcutaneous tissue, lesion: hemangiosarcoma) was 177 mg/kg/day. For the same compound, the TD50 (rat, strain Fischer 344, females, site: all sites, lesion: mononuclear-cell leukemia) was 30.4 mg/kg/day, the TD50 (rat, strain Fischer 344, females, site: any site (literature study), lesion: several types, types named in the paper) was 25.4 mg/kg/day and the TD50 (rat, strain Fischer 344, females, site: clitoral gland, lesion: adenoma + adenoma, bilateral + carcinoma + carcinoma, bilateral) was 7.14 mg/kg/day. The TD50 (rat, strain Fischer 344, females, site: clitoral gland, lesion: carcinoma + carcinoma, bilateral) was 12.4 mg/kg/day, the TD50 (rat, strain Fischer 344, females, site: kidney, lesion: tubule adenoma + tubule carcinoma) was 183 mg/kg/day and the TD50 (rat, strain Fischer 344, females, site: kidney, lesion: tubule adenoma) was 461 mg/kg/day and 183 mg/kg/day. For the same compound, the TD50 (rat, strain Fischer 344, females, site: lung, lesion: alveolar/bronchiolar adenoma) was 279 mg/kg/day, the TD50 (rat, strain Fischer 344, females, site: mammary gland, lesion: carcinoma + fibroadenoma) was 20.4 mg/kg/day and the TD50 (rat, strain Fischer 344, females, site: mammary gland, lesion: fibroadenoma) was 16.3 mg/kg/day. For the same compound, the TD50 (rat, strain Fischer 344, females, site: oral mucosa + gingiva + mammary gland + pharynx + thyroid gland + tongue, lesion: squamous-cell papilloma + carcinoma + fibroadenoma + squamous-cell carcinoma + follicular-cell adenoma + follicular-cell carcinoma) was 23.3 mg/kg/day, the TD50 (rat, strain Fischer 344, females, site: oral mucosa + gingiva + pharynx + tongue, lesion: squamous-cell papilloma + squamous-cell carcinoma) was 33.9 mg/kg/day and the TD50 (rat, strain Fischer 344, females, site: oral mucosa + gingiva + pharynx + tongue, lesion: squamous-cell papilloma) was 61.2 mg/kg/day. The TD50 (rat, strain Fischer 344, females, site: pharynx + tongue, lesion: squamous-cell carcinoma) was 77.8 mg/kg/day, the TD50 (rat, strain Fischer 344, females, site: thyroid gland, lesion: follicular-cell adenoma + follicular-cell carcinoma) was 113 mg/kg/day and the TD50 (rat, strain Fischer 344, females, site: tongue, lesion: squamous-cell carcinoma + squamous-cell papilloma) was 32.9 mg/kg/day. For the same compound, the TD50 (rat, strain Fischer 344, females, site: tongue, lesion: squamous-cell carcinoma) was 91.1 mg/kg/day, the TD50 (rat, strain Fischer 344, females, site: tongue, lesion: squamous-cell papilloma) was 53.5 mg/kg/day and the TD50 (rat, strain Fischer 344, females, site: urinary bladder, lesion: transitional-cell carcinoma) was 467 mg/kg/day. The TD50 (rat, strain Fischer 344, males, site: all sites, lesion: mesothelioma, malignant) was 27.1 mg/kg/day, the TD50 (rat, strain Fischer 344, males, site: any site (literature study), lesion: several types, types named in the paper) was 6.12 mg/kg/day and the TD50 (rat, strain Fischer 344, males, site: kidney, lesion: tubule adenoma + tubule carcinoma) was 16.1 mg/kg/day. The TD50 (rat, strain Fischer 344, males, site: kidney, lesion: tubule adenoma) was 38.9 mg/kg/day and 15.4 mg/kg/day, the TD50 (rat, strain Fischer 344, males, site: lung, lesion: alveolar/bronchiolar adenoma + alveolar/bronchiolar carcinoma) was 23.8 mg/kg/day and the TD50 (rat, strain Fischer 344, males, site: lung, lesion: alveolar/bronchiolar carcinoma) was 24.5 mg/kg/day. It also gave a TD50 (rat, strain Fischer 344, males, site: oral mucosa + gingiva + lung + pharynx + thyroid gland + tongue, lesion: squamous-cell papilloma + alveolar/bronchiolar adenoma + alveolar/bronchiolar carcinoma + follicular-cell adenoma + follicular-c) of 5.79 mg/kg/day, a TD50 (rat, strain Fischer 344, males, site: oral mucosa + gingiva + pharynx + tongue, lesion: squamous-cell papilloma + squamous-cell carcinoma) of 10.1 mg/kg/day and a TD50 (rat, strain Fischer 344, males, site: oral mucosa + gingiva + pharynx + tongue, lesion: squamous-cell papilloma) of 11.1 mg/kg/day. It also gave a TD50 (rat, strain Fischer 344, males, site: oral mucosa + gingiva + pharynx, lesion: squamous-cell papilloma) of 39.2 mg/kg/day, a TD50 (rat, strain Fischer 344, males, site: thyroid gland, lesion: c-cell adenoma) of 20 mg/kg/day and a TD50 (rat, strain Fischer 344, males, site: thyroid gland, lesion: follicular-cell adenoma + follicular-cell carcinoma) of 18.7 mg/kg/day. For the same compound, the TD50 (rat, strain Fischer 344, males, site: thyroid gland, lesion: follicular-cell adenoma) was 22 mg/kg/day, the TD50 (rat, strain Fischer 344, males, site: tongue, lesion: squamous-cell carcinoma + squamous-cell papilloma) was 13.6 mg/kg/day and the TD50 (rat, strain Fischer 344, males, site: tongue, lesion: squamous-cell papilloma) was 15.6 mg/kg/day. The TD50 (rat, strain Fischer 344, males, site: urinary bladder, lesion: transitional-cell carcinoma) was 99.9 mg/kg/day, the TD50 (rat, strain Fischer 344, males, site: urinary bladder, lesion: transitional-cell papilloma) was 468 mg/kg/day and the TD50 (rat, strain Wistar-random, females, site: any site (literature study), lesion: several types, types named in the paper) was 37.4 mg/kg/day (inactive). The carcinogen call (rat, strain Wistar-random, females) was “negative (inactive)”, the TD50 (rat, strain Wistar-random, females, site: mammary gland, lesion: fibroadenoma) was 55.1 mg/kg/day (inactive) and the TD50 (rat, strain Wistar-random, males, site: any site (literature study), lesion: several types, types named in the paper) was 66.4 mg/kg/day (inactive). For the same compound, the carcinogen call (rat, strain Wistar-random, males) was “negative (inactive)”.
